Laboratory results from US20220347175A1, “PYRIDAZINONE DERIVATIVE” (Sumitomo Dainippon Pharma Co., Ltd., priority 2018, published 2022).

Tests used:
human Nav1.1 = target: T1, human Nav1.1 (Homo sapiens, UniProt P35498); assay: Amplification of Nav1.1-derived voltage-dependent sodium current (Nav1.1 current), cell line stably expressing human Nav1.1, automated patch clamp; format: cell-based
T1 construct: host or cells: HEK293
Outline: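 Amplification rate (%) is 100 × post-compound/pre-compound Nav1.1 peak current or AUC, minus 100. Ramp-evoked sodium currents were recorded by automated patch clamp in a human Nav1.1 HEK293 stable line, restricted to cells exceeding 500 pA, with compounds added in extracellular solution containing 1% DMSO.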

human Nav1.5 = target: T2, human Nav1.5 (Homo sapiens, UniProt Q14524); assay: Amplification of Nav1.5-derived voltage-dependent sodium current (Nav1.5 current), cell line stably expressing human Nav1.5, automated patch clamp; format: cell-based
T2 construct: expressed in transfected cells; host or cells: CHO-K1 (T-REx System, ThermoFisher Scientific)
T2 sequence (Q14524 1-2015 isoform Q14524-2): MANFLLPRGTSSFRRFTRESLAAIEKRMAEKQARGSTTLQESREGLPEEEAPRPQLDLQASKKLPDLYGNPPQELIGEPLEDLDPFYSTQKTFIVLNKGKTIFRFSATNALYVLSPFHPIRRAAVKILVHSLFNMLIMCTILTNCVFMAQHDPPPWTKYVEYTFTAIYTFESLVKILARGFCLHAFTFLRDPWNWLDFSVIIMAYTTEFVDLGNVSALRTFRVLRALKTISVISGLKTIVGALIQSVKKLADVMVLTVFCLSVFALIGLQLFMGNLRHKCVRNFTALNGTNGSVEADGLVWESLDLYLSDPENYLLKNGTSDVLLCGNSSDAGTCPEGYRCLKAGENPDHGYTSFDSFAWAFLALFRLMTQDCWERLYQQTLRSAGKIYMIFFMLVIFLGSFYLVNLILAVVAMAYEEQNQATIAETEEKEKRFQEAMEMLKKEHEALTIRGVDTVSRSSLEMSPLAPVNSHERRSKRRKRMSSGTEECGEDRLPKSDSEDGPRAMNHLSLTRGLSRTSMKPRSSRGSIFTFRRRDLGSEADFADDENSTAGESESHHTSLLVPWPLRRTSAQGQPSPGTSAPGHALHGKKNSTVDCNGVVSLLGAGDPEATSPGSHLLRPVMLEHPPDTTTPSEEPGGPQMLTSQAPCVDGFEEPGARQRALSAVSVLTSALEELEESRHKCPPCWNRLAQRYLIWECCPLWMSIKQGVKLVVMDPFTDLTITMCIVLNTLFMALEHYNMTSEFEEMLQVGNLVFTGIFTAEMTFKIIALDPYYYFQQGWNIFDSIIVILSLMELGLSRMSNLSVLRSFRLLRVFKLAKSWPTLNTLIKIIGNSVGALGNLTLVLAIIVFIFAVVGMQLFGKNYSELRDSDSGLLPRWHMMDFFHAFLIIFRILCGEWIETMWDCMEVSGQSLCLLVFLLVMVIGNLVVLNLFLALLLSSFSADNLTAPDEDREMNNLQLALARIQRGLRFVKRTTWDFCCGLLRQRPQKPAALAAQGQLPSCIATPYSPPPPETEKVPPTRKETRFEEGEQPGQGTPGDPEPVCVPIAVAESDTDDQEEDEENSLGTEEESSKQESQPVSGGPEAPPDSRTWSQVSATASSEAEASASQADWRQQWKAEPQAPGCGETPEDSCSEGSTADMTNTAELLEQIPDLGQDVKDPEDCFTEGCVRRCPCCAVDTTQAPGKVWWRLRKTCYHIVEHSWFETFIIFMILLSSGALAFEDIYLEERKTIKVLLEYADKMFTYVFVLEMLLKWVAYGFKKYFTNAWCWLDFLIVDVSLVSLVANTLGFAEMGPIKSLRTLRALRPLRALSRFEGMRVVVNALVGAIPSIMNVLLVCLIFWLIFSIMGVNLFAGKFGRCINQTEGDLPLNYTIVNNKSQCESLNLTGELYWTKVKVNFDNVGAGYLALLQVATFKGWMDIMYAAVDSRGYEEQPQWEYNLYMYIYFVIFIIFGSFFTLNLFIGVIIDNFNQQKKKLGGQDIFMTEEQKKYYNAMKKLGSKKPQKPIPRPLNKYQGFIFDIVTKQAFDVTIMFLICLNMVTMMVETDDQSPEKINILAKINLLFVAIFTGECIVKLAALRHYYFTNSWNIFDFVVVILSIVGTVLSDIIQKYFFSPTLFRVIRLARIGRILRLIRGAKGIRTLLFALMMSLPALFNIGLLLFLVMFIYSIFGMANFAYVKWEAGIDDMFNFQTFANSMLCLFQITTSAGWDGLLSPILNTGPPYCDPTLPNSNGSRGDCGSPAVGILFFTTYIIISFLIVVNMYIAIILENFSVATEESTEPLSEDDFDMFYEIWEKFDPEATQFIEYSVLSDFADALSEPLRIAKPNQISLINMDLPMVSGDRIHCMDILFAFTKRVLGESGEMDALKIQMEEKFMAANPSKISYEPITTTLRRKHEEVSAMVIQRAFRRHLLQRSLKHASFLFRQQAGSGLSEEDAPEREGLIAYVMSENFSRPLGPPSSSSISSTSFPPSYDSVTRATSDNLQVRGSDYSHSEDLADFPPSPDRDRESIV

[1] = 10 μmol/L compound, change of the area under the curve of Nav1.1 current (Test Result 1), read-out: Nav1.1 current amplification rate (%)
[2] = 10 μmol/L compound, change of the area under the curve of Nav1.5 current (Test Result 1), read-out: Nav1.5 current amplification rate (%)
[3] = compound 3 μmol/L, HEK293 stably expressing human Nav1.1
[4] = compound 3 μmol/L, CHO-K1 stably expressing human Nav1.5
[5] = 10 μmol/L compound, change of the area under the curve of Nav1.1 current (Test Result 1)
[6] = 10 μmol/L compound, change of the area under the curve of Nav1.5 current (Test Result 1)
[7] = compound 1 μmol/L, HEK293 stably expressing human Nav1.1, read-out: Nav1.1 current amplification rate (%)
[8] = compound 1 μmol/L, CHO-K1 stably expressing human Nav1.5, read-out: Nav1.5 current amplification rate (%)

O=C(Cn1nc(N2CCCC3(CCCC3)C2)ccc1=O)Nc1ccc2ocnc2c1 [Example 132]
activation at 10 µM (human Nav1.1; [1]): 108% | activation at 10 µM (human Nav1.5; [2]): -2%

COCc1nc2cc(NC(=O)Cn3nc(C4=CCC(C)CC4)ccc3=O)ccc2o1 (racemic) [Example 325]
Nav1.1 current amplification rate (%) (human Nav1.1; [3]): 233% | Nav1.5 current amplification rate (%) (human Nav1.5; [4]): 10%

CC1CC=C(c2ccc(=O)n(CC(=O)N3CCc4c(-c5ccncc5)cccc43)n2)CC1 (racemic) [Example 250]
Nav1.1 current amplification rate (%) (human Nav1.1; [3]): 564% | Nav1.5 current amplification rate (%) (human Nav1.5; [4]): 121%

CC1CC=C(c2ccc(=O)n(CC(=O)N3CCC(c4ccncc4)CC3)n2)CC1 (racemic) [Example 259]
Nav1.1 current amplification rate (%) (human Nav1.1; [5]): 71% | Nav1.5 current amplification rate (%) (human Nav1.5; [6]): 2%

COc1cc(-c2cc(Cl)cs2)nn(CC(=O)Nc2ccn3ccnc3c2)c1=O [Example 466]
Nav1.1 current amplification rate (%) (human Nav1.1; [5]): 233% | Nav1.5 current amplification rate (%) (human Nav1.5; [6]): 38%

COc1nc2cc(NC(=O)Cn3nc(C4=CCC(C)(C)CC4)c(OC)cc3=O)ccc2o1 [Example 491]
activation at 3 µM (human Nav1.1; compound 3 μmol/L, HEK293 stably expressing human Nav1.1, read-out: Nav1.1 current amplification rate (%)): 157% | activation at 3 µM (human Nav1.5; compound 3 μmol/L, CHO-K1 stably expressing human Nav1.5, read-out: Nav1.5 current amplification rate (%)): 22%

CC1CCN(c2ccc(=O)n(CC(=O)Nc3ccnc(C(F)(F)F)c3)n2)CC1 [Example 52]
Nav1.1 current amplification rate (%) (human Nav1.1; [5]): 248% | Nav1.5 current amplification rate (%) (human Nav1.5; [6]): 19%

CC1CCN(c2ccc(=O)n(CC(=O)Nc3cncc(C#N)c3)n2)CC1 [Example 60]
Nav1.1 current amplification rate (%) (human Nav1.1; [5]): 57% | Nav1.5 current amplification rate (%) (human Nav1.5; [6]): 21%

CC1(C)CC=C(c2ccc(=O)n(CC(=O)N3CCN(c4cccnc4)CC3)n2)C1 [Example 508]
activation at 10 µM (human Nav1.1; [1]): 24% | activation at 10 µM (human Nav1.5; [2]): -3%

COC1CN(Cc2nc3cc(NC(=O)Cn4nc(C5=CCC(C)CC5)ccc4=O)ccc3o2)C1 (racemic) [Example 332]
Nav1.1 current amplification rate (%) (human Nav1.1; [3]): 15% | Nav1.5 current amplification rate (%) (human Nav1.5; [4]): 9%

O=C(Cn1nc(C2=CCC(F)(F)CC2)ccc1=O)Nc1ccn2ccnc2c1 [Example 464]
Nav1.1 current amplification rate (%) (human Nav1.1; [5]): 18% | Nav1.5 current amplification rate (%) (human Nav1.5; [6]): 1%

Cc1c(N2CCC3(CCC3)C2)nn(CC(=O)N2CCc3c(N4CCOCC4)cccc32)c(=O)c1C [Example 226]
activation at 10 µM (human Nav1.1; [1]): 319% | activation at 10 µM (human Nav1.5; [2]): 71%

O=C(Cn1nc(N2CCC3(CCCC3)C2)ccc1=O)Nc1cccc(-n2ccnc2)c1 [Example 123]
activation at 10 µM (human Nav1.1; [1]): 246% | activation at 10 µM (human Nav1.5; [2]): 30%

COc1ccc2c(c1)CCN2C(=O)Cn1nc(N2CCC(C)CC2)ccc1=O [Example 183]
activation at 10 µM (human Nav1.1; [1]): 95% | activation at 10 µM (human Nav1.5; [2]): 0%

CC1CC=C(c2ccc(=O)n(CC(=O)N3CCN(c4nccs4)CC3)n2)CC1 (stereo not drawn) [Example 414]
Nav1.1 current amplification rate (%) (human Nav1.1; [5]): 40% | Nav1.5 current amplification rate (%) (human Nav1.5; [6]): −2%

Cc1nc2cc(NC(=O)Cn3nc(C4=CCC(C)CC4)ccc3=O)ccc2o1 (stereo not drawn) [Example 422]
Nav1.1 current amplification rate (%) (human Nav1.1; [5]): 287% | Nav1.5 current amplification rate (%) (human Nav1.5; [6]): 28%

CC1CC=C(c2ccc(=O)n(CC(=O)Nc3cc4nccn4cn3)n2)CC1 (racemic) [Example 328]
Nav1.1 current amplification rate (%) (human Nav1.1; [3]): 58% | Nav1.5 current amplification rate (%) (human Nav1.5; [4]): 21%

CC1CC=C(c2ccc(=O)n(CC(=O)N3CCc4cc(C5CN(C6COC6)C5)ccc43)n2)CC1 (racemic) [Example 318]
Nav1.1 current amplification rate (%) (human Nav1.1; [3]): 77% | Nav1.5 current amplification rate (%) (human Nav1.5; [4]): 128%

O=C(Cn1nc(N2CCC3(CCC3)CC2)ccc1=O)Nc1ccn2cnnc2c1 [Example 176]
activation at 10 µM (human Nav1.1; [1]): 66% | activation at 10 µM (human Nav1.5; [2]): 2%

CC1CC=C(c2ccc(=O)n(CC(=O)Nc3ccc4nccn4n3)n2)CC1 (racemic) [Example 346]
Nav1.1 current amplification rate (%) (human Nav1.1; compound 1 μmol/L, HEK293 stably expressing human Nav1.1): 96% | Nav1.5 current amplification rate (%) (human Nav1.5; compound 1 μmol/L, CHO-K1 stably expressing human Nav1.5): 27%

CC1CCN(c2ccc(=O)n(CC(=O)Nc3ccc4c(c3)OCC4)n2)CC1 [Example 170]
activation at 10 µM (human Nav1.1; [1]): 107% | activation at 10 µM (human Nav1.5; [2]): 1%

O=C(Cn1nc(C2=CCC3(CC2)CC3)ccc1=O)N1CCc2c(-c3ccnnc3)cccc21 [Example 526, 2-{2-oxo-2-[4-(pyridazin-4-yl)-2.3-dihydro-1H-indol-1-yl]ethyl}-6-(spiro[2.5]oct-5-en-6-yl)pyridazin-3(2H)one]
activation at 1 µM (human Nav1.1; [7]): 499% | activation at 1 µM (human Nav1.5; [8]): 1%

CC1CC=C(c2ccc(=O)n(CC(=O)Nc3ccn4ccnc4c3)n2)CC1 (stereo not drawn) [Example 532]
activation at 10 µM (human Nav1.1; [1]): 239% | activation at 10 µM (human Nav1.5; [2]): 47%

CC1(C)CC=C(c2ccc(=O)n(CC(=O)Nc3ccn4ncnc4c3)n2)CC1 [Example 429, 2-[3-(4,4-dimethylcyclohex-1-en-1-yl)-6-oxopyridazin-1(6H)-yl]-N-([1,2,4]triazolo[1,5-a]pyridin-7-yl)acetamide]
activation at 1 µM (human Nav1.1; [7]): 101% | activation at 1 µM (human Nav1.5; [8]): 28%
